“And” between values parts separate entries of the source, which are not always exact repeats. Equal values may be shown once. Read-outs that look alike come from different tables or passages of the source.
Key:
Sprague Dawley rats = assay: Observation of potential adverse behavior (behavioral signs) in the rat DC-MES studies; type: in vivo; conditions: rat
Protocol: Animals were observed by the scientist(s) responsible for dosing for the first 30 min after dosing for and again at the time of assay (2 hr post dose) for signs of abnormal behavior.

[1] = Bioanalytical assessment of plasma and brain concentrations after rat DC-MES assay; type: in vivo; conditions: sheet Figure 5G, 5H, 5I (rats); for concentration at 2 h: rat, po
wild-type mice (CF-1) = assay: DC-Maximal electroshock seizure assay (DC-MES); type: in vivo, mouse; conditions: for WT mouse DCMES Chronic, Fraction of animals seizing: day 7, 2 h after 13th dose; for WT mouse DCMES acute, Fraction of animals seizing: 2 h
Protocol: Phenytoin was formulated in physiologic saline and was administered intraperitoneally (i.p.) using a 25-gauge needle at a dose volume of 10 mL/kg. All compounds were administered 2 hr prior to electrical seizure induction for all seizure models employed in this study.
The maximal electroshock seizure (MES) assay has been extensively used in the search for anticonvulsant substances ([Löscher et al., 1991]; [Piredda et al., 1985]; [White et al., 1995]). The MES assay is sensitive to nonselective NaV inhibitors. It is considered a model for generalized tonic-clonic (GTC) seizures and provides an assessment of seizure spread. Briefly, an electroshock of direct current (DC) was delivered by corneal electrodes (Electro Convulsive Therapy Unit 57,800 from Ugo Basile). The parameters of stimulation were different between mice and rats. In CF1 mice aged 9–12 weeks, a direct current of 50 mA (60 Hz) was delivered for 0.2 s (pulse width of 0.5ms), whereas in Sprague Dawley (SD) rats aged 5–6 weeks, a direct current of 150 mA (60 Hz) was delivered for 0.3 s (pulse width of 0.5ms). Immediately prior to the electroshock, the animals’ eyes were anesthetized with a drop of Alcaine (0.5% proparacaine hydrochloride).
An animal was considered protected in the assay in the absence of a GTC with hindlimb extension and is then scored ‘0’. An animal displaying GTC with hindlimb extension was considered not protected and is then scored ‘1’. The experimenter scoring the seizure behavior was blinded to the treatment.

[2] = Bioanalytical assessment of plasma and brain concentrations after mouse DC-MES assay; type: in vivo; conditions: WT mice; for concentration at 2 h: mouse, brain, po, read-out: Mean [Brain]
Protocol: Approximately 0.5 mL of blood was collected from each mouse at the end of the assay via cardiac puncture under deep anesthesia. The blood samples were collected in a syringe and transferred to tubes containing EDTA. Blood was stored at 4 °C until centrifuged within 30 min of collection. Plasma was harvested and placed on dry ice and stored in a freezer set to maintain a temperature of –70°C to –80°C until analysis. Brains were harvested immediately after blood collection and placed on dry ice prior to storage in a freezer set to maintain a temperature of –70°C to –80°C until analysis.
Extraction of plasma samples was carried out by protein precipitation using acetonitrile. Plasma samples (50 µL) were mixed with 50 µL of internal standard (IS) solution in water followed by addition of 10 µL of concentrated ortho-phosphoric acid and 200 µL of acetonitrile. Samples were vortexed for 30 seconds, centrifuged at 13,000 rpm for 20 min, decanted in to a 96-well plate, and further centrifuged at 4000 rpm for 20 min. The samples were analyzed by UHPLC-ESI-MS/MS as described below.
Prior to extraction, pre-weighed whole brains were homogenized in 1:1 acetonitrile/water (v/v) (4 mL per mouse brain) using an IKA T18 ULTRA-TURRAX Homogenizer at the setting of 4 for approximately 2 min. The homogenate was centrifuged at 13,000 rpm for 20 min and 50 µL of the supernatant were treated exactly as described above for plasma samples. […]
Samples were analyzed by UHPLC-ESI MS/MS using a TQ-5500 Sciex triple quadrupole mass spectrometer equipped with a Shimadzu Nexera UHPLC pump and auto-sampler system using an ACE C18 PFP, 2.50 × 50 mm, 1.7 µm particle size column and gradient elution consisting of solvent A (0.1% formic acid in water) and solvent B (0.1% formic acid in acetonitrile) starting at 20% B from 0 min to 0.4 min and then increased to 100% B from 0.4 min to 0.6 min. At 2.0 min, the mobile phase composition was switched back to […] for 1 min. The flow rate used throughout the experiment was […]. […] The UHPLC-ESI MS/MS system was controlled by Analyst 1.6.
Sample concentrations were determined using a linear calibration function, weighted 1 /X, generated by the regression of analyte to IS peak area ratios in the standard samples to their respective concentrations. Acceptance criteria for the analytical run required that the back calculated values of the standards and the QC samples fell within ±20% of their nominal values, except for the lowest standard or lower limit of quantitation (LLOQ), for which the acceptance criterion was ±25%. At least 6 out of 12 standard points had to show back-calculated values within ±20% of their nominal concentrations for the calibration to be accepted. At least three QC samples, one at each level, had to show back-calculated values within ±20% of their nominal concentrations for the whole sample batch to be valid.

[3] = 3 mg/kg PO every 12 hr, day 7, 2 h after 13th dose, 3 mg/kg
[4] = 5 mg/kg PO every 12 hr, day 7, 2 h after 13th dose, 5 mg/kg
[5] = 10 mg/kg PO single dose, 2 h, 10 mg/kg

Structure (SMILES): Cc1cc(S(=O)(=O)Nc2cscn2)c(F)cc1N(C)[C@H]1CCN(Cc2ccccc2)C1 [NBI-921352]
- minimal plasma concentration provoking behavioral signs (BSC) (Sprague Dawley rats): 71 µM
- concentration at 2 h ([1]; brain, 1 mg/kg, 1 mg/kg PO every 12 hr, day 7, 2 hr after 13th dose, read-out: Mean [Brain]): 12.5 nM
- concentration at 2 h ([1]; brain, 1 mg/kg, 1 mg/kg PO single dose, 2 hr, read-out: Mean [Brain]): 16.6 nM
- concentration at 2 h ([1]; brain, 3 mg/kg, 3 mg/kg PO every 12 hr, day 7, 2 hr after 13th dose, read-out: Mean [Brain]): 39.6 nM
- concentration at 2 h ([1]; brain, 10 mg/kg, 10 mg/kg PO single dose, 2 hr, read-out: Mean [Brain]): 161 nM
- concentration at 2 h ([1]; brain, 30 mg/kg, 30 mg/kg PO single dose, 2 hr, read-out: Mean [Brain]): 213 nM
- concentration at 2 h ([1]; plasma, 1 mg/kg, 1 mg/kg PO every 12 hr, day 7, 2 hr after 13th dose, read-out: Mean [Plasma]): 33.9 nM
- concentration at 2 h ([1]; plasma, 3 mg/kg, 3 mg/kg PO every 12 hr, day 7, 2 hr after 13th dose, read-out: Mean [Plasma]): 123 nM
- concentration at 2 h ([1]; plasma, 10 mg/kg, 10 mg/kg PO single dose, 2 hr, read-out: Mean [Plasma]): 1150 nM
- concentration at 2 h ([1]; plasma, 30 mg/kg, 30 mg/kg PO single dose, 2 hr, read-out: Mean [Plasma]): 2330 nM
- Mean [Brain] ([1]; 1 mg/kg PO single dose, 2 hr, 1 mg/kg): 0.02047 µM and 0.01429 µM and 0.01541 µM
- WT mouse DCMES Chronic, Fraction of animals seizing (wild-type mice (CF-1); 3 mg/kg PO every 12 hr): 0.4 and 0.25
- WT mouse DCMES acute, Fraction of animals seizing (wild-type mice (CF-1); 3 mg/kg PO single dose): 0.8 and 0.75 and 0.7143
- WT mouse DCMES Chronic, Fraction of animals seizing (wild-type mice (CF-1); 5 mg/kg PO every 12 hr): 0.25 and 0.2857
- WT mouse DCMES acute, Fraction of animals seizing (wild-type mice (CF-1); 5 mg/kg PO single dose): 0.625 and 0.7143
- WT mouse DCMES Chronic, Fraction of animals seizing (wild-type mice (CF-1); 10 mg/kg PO every 12 hr): 0.2
- WT mouse DCMES acute, Fraction of animals seizing (wild-type mice (CF-1); 10 mg/kg PO single dose): 0.6 and 0.4286 and 0.6667
- WT mouse DCMES acute, Fraction of animals seizing (wild-type mice (CF-1); 30 mg/kg PO single dose): 0.3333 and 0.4 and 0.4286
- WT mouse DCMES acute, Fraction of animals seizing (wild-type mice (CF-1); 100 mg/kg PO single dose): 0.2857
- WT mouse DCMES acute, Fraction of animals seizing (wild-type mice (CF-1); 200 mg/kg PO single dose): 0.1667
- EC50 (wild-type mice (CF-1); WT mouse DC-MES, 2 hr post dose (oral; phenytoin i.p.), read-out: brain EC50): 200 nM
- ED50 (wild-type mice (CF-1); WT mouse DC-MES, oral, 2 hr, read-out: ED50, prevention of GTC with hindlimb extension): 23 mg/kg
- EC50 (wild-type mice (CF-1); WT mouse DC-MES, read-out: plasma EC50): 520 nM
- Mean [Brain] [2, 3]: 0.01911 µM
- Mean [Plasma] [2, 3]: 0.01423 µM
- Mean [Plasma] ([2]; 3 mg/kg PO single dose, 2 h, 3 mg/kg): 0.01728 µM and 0.009122 µM
- Mean [Brain] [2, 4]: 0.02064 µM
- Mean [Plasma] [2, 4]: 0.03091 µM
- Mean [Plasma] ([2]; 5 mg/kg PO single dose, 2 h, 5 mg/kg): 0.0212 µM
- Mean [Brain] [2, 5]: 0.05777 µM and 0.08031 µM
- Mean [Plasma] [2, 5]: 0.1016 µM and 0.1012 µM
- concentration at 2 h ([2]; 3 mg/kg, 3 mg/kg PO every 12 hr, day 7, 2 h after 13th dose): 12.8 nM
- concentration at 2 h ([2]; 5 mg/kg, 5 mg/kg PO every 12 hr, day 7, 2 h after 13th dose): 37.7 nM
- concentration at 2 h ([2]; 10 mg/kg, 10 mg/kg PO every 12 hr, day 7, 2 h after 13th dose): 37.7 nM

Source: paper PMC8903829 (eLife, 2022)
